In patent publication US6495588B2, “Scytonemin and methods of using thereof” (The Regents of the University of California, priority 2000, dated 2002):

Tests used:
Jurkat T cells = assay: Apoptosis assay (TUNEL, flow cytometry); assay type: cell-based; conditions: 3 μM, 24 hours
Experimental: To determine the mechanism behind the ability of SCY to inhibit cell proliferation, about 2×10^5 Jurkat T cells/ml were treated with vehicle (negative control), 3 μM SCY, or 3 μM camptothecin (positive control) a (0.1% DMSO[final]) and incubated at 37° C., 5% CO2 for 24 hours. As a positive control, camptothecin, a DNA topoisomerase inhibitor, was used because of its ability to arrest Jurkat cells at the G2/M phase of the cell cycle and induce the cells to undergo apoptosis. The cells were fixed in 1% paraformaldehyde, washed once with PBS, and stored in 70% EtOH at−20° C. Apoptosis was measured using the Promega Apoptosis Detection System (Promega, Madison, Wis.) an adapted TUNEL staining method.
The cells were washed two times with 5 ml PBS 2% FBS, then transferred to a microcentrifuge tube in 1 ml PBS, 0.2% Triton×100, 5 mg/ml BSA and incubated on ice for 5 minutes. Samples were spun, PBS solution removed, then resuspended in 80 μl equilibration buffer from Promega kit and incubated at room temperature for 10 minutes. Then the samples were spun and the equilibration buffer removed. A nucleotide mix comprising 45 μl equilibration buffer, 5 μl nucleotide mix, 1 μl Tdt enzyme per sample, was used to resuspend each sample in the dark. The cells were incubated in the dark at 37° C. for 1 hour. The reaction was terminated by the addition of 20 mM EDTA. The samples were washed twice with 1 ml RNAse A and a small aliquot, about 50 μl, was viewed under a microscope. Cells were stained with fluoroscein and then counterstained with propidium iodide and analyzed for DNA content and fragmentation using a Becton-Dickinson FacsSort (Becton-Dickinson, San Jose, Calif.).

[1] = tested on: PMA-induced mouse ear edema; assay: PMA-induced mouse ear edema assay; assay type: in vivo; conditions: topical application
Experimental: The efficacy of a scytoneman compound as an anti-inflammatory agent may be established by the following assay. The scytoneman compound is topically applied in acetone to the inside pinnae of the ears of mice in a solution comprising an irritant such as the edema-causing irritant, Phorbol 12-myristate 13-acetate (PMA). Specifically, 2 μg/ear of PMA alone or in combination with 50 μg/ear of the test compound, scytonemin, was applied to the left ears (5 mice per treatment group) and acetone was applied to all right ears. After 3 hours, 20 minutes incubation, the mice were sacrificed, the ears removed and bores taken and weighed. Edema was measured by subtracting the weight of the right ear (acetone control) from the weight of the left ear (treated). Results were recorded as % decrease (inhibition) or % increase (potentiation) in edema relative to the PMA control group edema.

LPS-stimulated monocytes = assay: Proinflammatory mediator production in LPS-stimulated monocytes; assay type: cell-based
CDK1/cyclinB1 = target: T1, CDK1/cyclinB1 (Homo sapiens, UniProt P06493); assay: CDK1/cyclinB histone H1 phosphorylation assay; assay type: biochemical; conditions: 0.1 μM ATP, histone H1 substrate
T1 construct: made in house
Experimental: To determine the effect of SCY on CDK1/cyclinB1 kinase activity, the following assay was conducted. Baculovirus vectors expressing CDK1 and cyclinB1, obtained from Dr. David Morgan of the University of California San Francisco, were expressed and purified by the method described in Desai, et al. (1992) Mol. Cell Biol. 3:571-582, which is herein incorporated by reference, to 80% purity as determined by SDS-PAGE analysis and Coomassie Blue staining. CDK1/cyclinB1 kinase activity was analyzed in a 96-well flashplate assay using 2.0 μg/well bovine histone H1 as a substrate. Reactions were run in 50 μl with 0.25 μg of CDK1/cyclinB1 complex, in reaction buffer (50 mM HEPES, pH 7.4, 10 mM MgCl2, 0.1 μM ATP, 1 mM DTT and 0.5 μCi of [γ^33-P] ATP (final reaction concentrations)), and SCY (1 nM to 10 μM final reaction concentration). The positive control used was […] hymenialdisine (final concentration) in a final vehicle concentration of 1% DMSO.
Reactions were initiated with the addition of ATP and allowed to proceed for 10 minutes at room temperature. The reactions were stopped by washing the plate five times with 300 μl/well of PBS. The plate was then counted on a Packard Top-Count.

GST-CHK1 = target: T2, GST-CHK1 (Homo sapiens, UniProt O14757); assay: GST-Chk1 activity assay; assay type: biochemical; conditions: 10 μM cold ATP, GST-cdc25C substrate
T2 construct: made in house
T2 sequence (O14757 1-476): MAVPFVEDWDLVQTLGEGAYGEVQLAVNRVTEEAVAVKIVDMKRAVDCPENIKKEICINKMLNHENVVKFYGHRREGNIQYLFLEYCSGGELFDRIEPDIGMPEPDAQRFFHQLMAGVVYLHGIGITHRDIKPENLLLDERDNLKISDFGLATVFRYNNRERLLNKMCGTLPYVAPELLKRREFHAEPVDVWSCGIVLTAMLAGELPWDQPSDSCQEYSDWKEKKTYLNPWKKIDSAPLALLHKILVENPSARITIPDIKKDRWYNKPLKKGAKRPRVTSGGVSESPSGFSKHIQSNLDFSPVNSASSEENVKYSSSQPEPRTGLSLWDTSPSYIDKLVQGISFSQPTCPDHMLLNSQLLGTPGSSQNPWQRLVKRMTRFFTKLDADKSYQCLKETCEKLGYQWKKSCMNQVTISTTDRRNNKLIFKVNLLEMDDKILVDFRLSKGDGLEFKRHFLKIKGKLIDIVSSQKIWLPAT
Experimental: To determine the effect of SCY on GST-Chk1 activity, the following assay was conducted. GST-Chk1 were expressed and purified using a method previously described in Jackson et al. (2000) Can. Res. 60:566-572, which is herein incorporated by reference. GST-Chk1 was purified to […] purity as determined via SDS-PAGE analysis. The remaining 30% was attributed to free GST. Flashplates were coated with 1 μg GST-cdc25C and 100 μM ATP at 4° C. The plates were washed twice with PBS, then 0.5 μCi [^33P]-γATP, 10 μM cold ATP, and 2 μg GST-CHK1, were added to the wells in kinase reaction buffer comprising 20 mM HEPES (pH 7.4), 50 mM KCl, 10 mM MgCl2, 1 mM EGTA, and 0.5 mM DTT. Activity was measured in the presence of scytonemin (SCY) in 100% DMSO yielding a 4% DMSO final concentration. Reactions were initiated by the addition of the enzyme, incubated at 37° C. for 30 minutes, and stopped by washing the plates five times with PBS. The amount of [^33P]-γATP incorporation was measured on a Packard Top-count.

T1 sequence (P06493 whole entry): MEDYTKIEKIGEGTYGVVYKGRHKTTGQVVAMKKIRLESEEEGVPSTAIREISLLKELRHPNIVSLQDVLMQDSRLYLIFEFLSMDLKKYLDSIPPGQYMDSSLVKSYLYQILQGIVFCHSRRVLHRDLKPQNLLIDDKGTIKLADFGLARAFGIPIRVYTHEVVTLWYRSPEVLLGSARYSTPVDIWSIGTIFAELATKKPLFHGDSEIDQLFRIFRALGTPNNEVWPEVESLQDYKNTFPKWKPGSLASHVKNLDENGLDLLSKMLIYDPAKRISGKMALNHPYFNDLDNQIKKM
T1 sequence (P14635 whole entry partner): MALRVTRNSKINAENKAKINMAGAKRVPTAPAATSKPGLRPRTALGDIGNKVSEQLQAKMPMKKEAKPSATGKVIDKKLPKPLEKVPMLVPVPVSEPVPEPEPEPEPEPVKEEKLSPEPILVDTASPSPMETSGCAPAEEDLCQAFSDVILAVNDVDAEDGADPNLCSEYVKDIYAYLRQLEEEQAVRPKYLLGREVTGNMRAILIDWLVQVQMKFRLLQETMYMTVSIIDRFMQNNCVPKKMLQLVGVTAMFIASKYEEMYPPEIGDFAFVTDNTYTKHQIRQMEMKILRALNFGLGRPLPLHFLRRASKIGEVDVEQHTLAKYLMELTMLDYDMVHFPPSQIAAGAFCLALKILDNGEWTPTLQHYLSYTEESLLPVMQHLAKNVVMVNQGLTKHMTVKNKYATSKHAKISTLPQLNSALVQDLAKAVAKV

In the case of scytonemin, the “effect on cell cycle progression” value (Jurkat T cells) is reported as “did not have any cell cycle specific effect”, the “induction of apoptosis (DNA fragmentation)” value (Jurkat T cells) is reported as “cause the cells to undergo apoptosis in all phases of the cell cycle” and the “ED50 PMA-induced mouse ear edema and tissue myeloperoxidase activity” value [1] is reported as “about 10.9±5 μg per ear”. The IL-1β production (LPS-stimulated monocytes) was “reduces”, the PGE2 production (LPS-stimulated monocytes) was “reduces” and the TNFα production (LPS-stimulated monocytes) was “reduces”. The IC50 (CDK1/cyclinB1) was about 3000 nM and the IC50 (GST-CHK1) was about 1400 nM.
